In US8067529B2, “Immunogenic T-helper epitopes from human tumour antigens and immunotherapeutic methods using said epitopes” (Immatics Biotechnologies GmbH, priority 2004, dated 2011):

Experiments:
Assay type in all cases: cell-based, human
Ii-fusion proteins = test: Endosomal/lysosomal targeting of the fusion proteins (chloroquin, Western blot with mAb PIN.1); details: transfectants incubated 4 h with increasing amounts of chloroquin (10-100 μM)
Experimental: Fusion proteins were detected by Western blot analysis using the mAb PIN.1 (Stressgen, Biomol, Hamburg, Germany) which binds to amino acid residues 12-28 of Ii. Briefly, cells were lysed as described (Hsieh, C. S., deRoos, P., Honey, K., Beers, C. & Rudensky, A. Y. (2002) J. Immunol. 168, 2618-2625), lysates were boiled in Laemmli loading buffer, separated on a 12% SDS-PAGE and transferred onto nitrocellulose membranes. After a saturation step with BSA, membranes were incubated for 1 h at room temperature with the mAb PIN.1 (1 μg/ml). Proteins were visualised using a peroxidase-coupled sheep anti-mouse IgG (Amersham Pharmacia, Freiburg, Germany). […] Cells were then lysed and proteins were detected by Western blot as described above.
It has already been described that the N-terminus of Ii is sufficient to target proteins into the MHC class II pathway (Sanderson, S., Frauwirth, K. & Shastri, N. (1995) Proc. Natl. Acad. Sci. U.S. A 92, 7217-7221, Wang, R. F., Wang, X., Atwood, A. C., Topalian, S. L. & Rosenberg, S. A. (1999) Science 284, 1351-1354, Malcherek, G., Wirblich, C., Willcox, N., Rammensee, H. G., Trowsdale, J. & Melms, A. (1998) Eur. J. Immunol. 28, 1524-1533). […] Cells were then lysed and fusion proteins were detected by Western blot.

IL-4 = IL-4 secretion by sandwich ELISA; details: T-helper cell line; 10 μM peptide or 3 μg/ml PHA
Experimental: (§1) T-helper cell activation was tested by cell proliferation as estimated by thymidine incorporation as well as cytokine secretion. Briefly, 2×10^5 cells were incubated in triplicates in a 96-well plate with 2×10^5 irradiated autologous PBMC in the presence or absence of 10 μM peptide or 3 μg/ml PHA. After 24 hours, two portions of 50 μl supernatant were harvested and frozen and 50 μl fresh medium was added to the cells. After 54 hours, 50 μl of tritiated thymidine-containing medium (0.074 MBq/well, Hartmann Analytic, Braunschweig, Germany) was added and thymidine incorporation measured at 72 hours using a scintillation counter (Microbeta, Wallac, Freiburg, Germany). Cell proliferation is expressed as a stimulation index (S.I.), which corresponds to the ratio: (mean cpm of stimulated T cells)/(mean cpm of unstimulated T cells). IL-2 secretion was measured using the IL-2 dependent CTLL-2 cell line. […] Then, thymidine-containing-medium (0.055 MBq/well) was added for 7-8 additional hours and thymidine incorporation was measured as described above. Results are also expressed as a S.I. IFN-γ, IL-4 and IL-6 secretion was measured by sandwich ELISA using antibody pairs and peroxidase-conjugated streptavidin from PharMingen and according to Manufacturer's recommendations. […] OD450 was then measured and results expressed in pg/ml according to the standards.

IFN-γ = IFN-γ secretion by sandwich ELISA; details: peptide-induced T-cell stimulation, 10 μM peptide; 24 hours supernatant
Experimental: as §1

IL-2 = IL-2 secretion measured with the IL-2 dependent CTLL-2 cell line; details: T-helper cell line with autologous PBMC; 10 μM peptide or 3 μg/ml PHA; 24 hours supernatant
Experimental: (§2) T-helper cell activation was tested by cell proliferation as estimated by thymidine incorporation as well as cytokine secretion. Briefly, 2×10^5 cells were incubated in triplicates in a 96-well plate with 2×10^5 irradiated autologous PBMC in the presence or absence of 10 μM peptide or 3 μg/ml PHA. After 24 hours, two portions of 50 μl supernatant were harvested and frozen and 50 μl fresh medium was added to the cells. After 54 hours, 50 μl of tritiated thymidine-containing medium (0.074 MBq/well, Hartmann Analytic, Braunschweig, Germany) was added and thymidine incorporation measured at 72 hours using a scintillation counter (Microbeta, Wallac, Freiburg, Germany). Cell proliferation is expressed as a stimulation index (S.I.), which corresponds to the ratio: (mean cpm of stimulated T cells)/(mean cpm of unstimulated T cells). IL-2 secretion was measured using the IL-2 dependent CTLL-2 cell line. Briefly, 10^4 cells were incubated in the presence of supernatants for 20-24 hours. Then, thymidine-containing-medium (0.055 MBq/well) was added for 7-8 additional hours and thymidine incorporation was measured as described above. Results are also expressed as a S.I.

IL-6 = IL-6 secretion by sandwich ELISA; details: T-helper cell line; 10 μM peptide or 3 μg/ml PHA
Experimental: as §1

T-helper cell line = test: T-helper cell proliferation by thymidine incorporation (stimulation index); details: T-helper cell line with irradiated autologous PBMC; 10 μM peptide or 3 μg/ml PHA; thymidine incorporation at 72 hours
Experimental: 3×10^5 matured DC were loaded for two hours with 10 μM of peptide […] (SEQ ID NO: 1) in a 24-well plate and extensively washed. Then 4×10^6 fresh autologous PBMC were added onto DC in the presence of 10 ng/ml IL-12p70 in order to favour Th-1 development. PBMC were weekly restimulated with peptide-loaded irradiated autologous PBMC in the presence of 10 U/ml IL-2 and 5 ng/ml IL-7. After 3 and 5 restimulations, T cells were pooled and tested against autologous PBMC in the presence of peptide. […]
as §2, with “Briefly, 2×10^5 cells were incubated in triplicates in a 96-well plate with 2×10^5 irradiated autologous PBMC in the presence or absence of 10 μM peptide or 3 μg/ml PHA. After 24 hours, two portions of 50 μl supernatant were harvested and frozen and 50 μl fresh medium was added to the cells.” left out, “Briefly, 10^4 cells were incubated in the presence of supernatants for 20-24 hours.” left out

Row | Molecule | fusion protein amounts (Western blot band intensity) (Ii-fusion proteins) | IL-4 secretion (IL-4) | IFN-γ secretion (IFN-γ) | IL-2 production of the T cells (IL-2) | IL-6 secretion (IL-6) | T-cell proliferation, stimulation index (S.I.) (T-helper cell line)
1 | CCN(CC)CCCC(C)Nc1ccnc2cc(Cl)ccc12 (stereo not shown) [chloroquin] | fusion protein amounts increase with chloroquin concentrations | – | – | – | – | –
2 | NPPSMVAAGSVVAAV (listed as Homo sapiens) [cyclin D1 peptide, immunogenic HLA-DR4-presented cyclin D1 peptide antigen] | – | no IL-4 or IL-6 secretion | 3250 pg/mL | produced IL-2 in response to the peptide, although to a low extent | no IL-4 or IL-6 secretion | 5.4
3 | Phytohaemagglutinin [PHA] | – | highly | – | still sensitive to PHA stimulation | moderately | 330
